Legend:
Experiment in all cases: PROLiFiler-Cell Panel Screening (CellTiterGlo)
Type in all cases: cell-based
BT-20 = settings: Homo sapiens; Breast, BT-20, 72 hours
Description: (§1) For the assays, cells were seeded in white cell culture-treated flat and clear bottom 384-well multiwall plates and incubated at 37° C. overnight before the calix[4]arene of the formula (2) or the reference compound were added. After incubation for 72 hours at 37° C. at 5% or 10% CO2 depending on the medium, cell plates were equilibrated to room temperature (i.e. 20° C.) for one hour, CellTiterGlo® reagent from the firm Promega was added and luminescence was measured approximately an hour later using a luminometer.
(§2) Raw data were converted into percent cell viability relative to the high and low control, which were set to 100% and 0%, respectively.

SNU-1 = settings: Homo sapiens, SNU1; Stomach, SNU-1, 72 hours
Description: as §1, §2

DU-145 = settings: Homo sapiens; Prostate, DU-145, 72 hours
Description: as §1, §2

NCI-H1573 = settings: Homo sapiens; Lung, NCI-H1573, 72 hours
Description: as §1, §2

U2OS = settings: Homo sapiens, Bone, 72 hours
Description: as §1, §2

A549 = settings: Homo sapiens; Lung, A549, 72 hours
Description: as §1, §2

HCC827 = settings: Homo sapiens; Lung, HCC827, 72 hours
Description: as §1, §2

BEN = settings: Lung, 72 hours
Description: as §1, §2

DV90 = settings: Homo sapiens, DV-90; Lung, DV90, 72 hours
Description: as §1, §2

AsPC-1 = settings: Homo sapiens, ASPC1; Pancreas, AsPC-1, 72 hours
Description: as §1, §2

SNU840 = settings: SNU-840; Ovary, SNU840, 72 hours
Description: as §1, §2

SW480 = settings: Homo sapiens; Colon, SW480, 72 hours
Description: as §1, §2

EPLC-272H = settings: Homo sapiens, Lung, 72 hours
Description: as §1, §2

HT-1080 = settings: Homo sapiens; Fibrosarcoma, HT-1080, 72 hours
Description: as §1, §2

A172 = settings: Homo sapiens, A 172; Brain, A172, 72 hours
Description: as §1, §2

SW620 = settings: Homo sapiens, SW-620; Colon, SW620, 72 hours
Description: as §1, §2

LOU-NH91 = settings: Lung, LOU-NH91, 72 hours
Description: as §1, §2

HCC 1569 = settings: Homo sapiens, HCC1569; Breast, HCC 1569, 72 hours
Description: as §1, §2

A498 = settings: Homo sapiens; Kidney, A498, 72 hours
Description: as §1, §2

SW948 = settings: Homo sapiens; Colon, SW948, 72 hours
Description: as §1, §2

MDA-MB-468 = settings: Homo sapiens; Breast, MDA-MB-468, 72 hours
Description: as §1, §2

EFM-192A = settings: Breast, 72 hours
Description: as §1, §2

H460 = settings: Homo sapiens, NCI-H460; Lung, H460, 72 hours
Description: as §1, §2

HCT116 = settings: Homo sapiens, HCT-116; Colon, HCT116, 72 hours
Description: as §1, §2

H1299 = settings: Homo sapiens, NCI-H1299; Lung, H1299, 72 hours
Description: as §1, §2

H4 = settings: Brain, H4, 72 hours
Description: as §1, §2

U251MG = settings: Homo sapiens, U-251, Brain, 72 hours
Description: as §1, §2

Caki-1 = settings: Homo sapiens; Kidney, Caki-1, 72 hours
Description: as §1, §2

HeLa = settings: Homo sapiens, Cervix, 72 hours
Description: as §1, §2

T98G = settings: Homo sapiens, Brain, 72 hours
Description: as §1, §2

A2058 = settings: Homo sapiens; Skin, A2058, 72 hours
Description: as §1, §2

MV4-11 = settings: Homo sapiens; Blood, MV4-11, 72 hours
Description: as §1, §2

HCT-15 = settings: Homo sapiens; Colon, HCT-15, 72 hours
Description: as §1, §2

SW-1783 = settings: Homo sapiens, SW1783; Brain, SW-1783, 72 hours
Description: as §1, §2

K562 = settings: Homo sapiens; Blood, K562, 72 hours
Description: as §1, §2

JIMT-1 = settings: Homo sapiens; Breast, JIMT-1, 72 hours
Description: as §1, §2

HuH7 = settings: Homo sapiens, Huh-7; Liver, HuH7, 72 hours
Description: as §1, §2

| SMILES | IC50 (BT-20) [nM] | IC50 (SNU-1) [nM] | IC50 (DU-145) [nM] | IC50 (NCI-H1573) [nM] | IC50 (U2OS) [nM] | IC50 (A549) [nM] | IC50 (HCC827) [nM] | IC50 (BEN) [nM] | IC50 (DV90) [nM] | IC50 (AsPC-1) [nM] | IC50 (SNU840) [nM] | IC50 (SW480) [nM] | IC50 (EPLC-272H) [nM] | IC50 (HT-1080) [nM] | IC50 (A172) [nM] | IC50 (SW620) [nM] | IC50 (LOU-NH91) [nM] | IC50 (HCC 1569) [nM] | IC50 (A498) [nM] | IC50 (SW948) [nM] | other results |
| --- | --- | --- | --- | --- | --- | --- | --- | --- | --- | --- | --- | --- | --- | --- | --- | --- | --- | --- | --- | --- | --- |
| CCCOc1c2cccc1Cc1cccc(c1OCc1nccn1C)Cc1cccc(c1OCCC)Cc1cccc(c1OCc1nccn1C)C2 [(2)] | 1270 | 2550 | 1930 | 2210 | 1060 | 1040 | 1720 | 3680 | 2160 | 834 | 1150 | 1520 | 1470 | 1900 | 1210 | 1760 | 652 | 2960 | 1720 | 2150 | IC50 (MDA-MB-468): 741 nM; IC50 (EFM-192A): 5450 nM; IC50 (H460): 727 nM; IC50 (HCT116): 950 nM; IC50 (H1299): 1300 nM; IC50 (H4): 2900 nM; IC50 (U251MG): 3530 nM; IC50 (Caki-1): 3240 nM; IC50 (HeLa): 1700 nM; IC50 (T98G): 3110 nM; IC50 (A2058): 938 nM; IC50 (MV4-11): 671 nM; IC50 (HCT-15): 2020 nM; IC50 (SW-1783): 3380 nM; IC50 (K562): 1890 nM; IC50 (JIMT-1): 2700 nM; IC50 (HuH7): 543 nM |
| CC(C)C[C@H](NC(=O)[C@H](Cc1ccccc1)NC(=O)c1cnccn1)B(O)O [bortezomib, reference compound] | 29.5 | 28.8 | 6.8 | 16.7 | 5.83 | 13.7 | 8.4 | 53.1 | 7.37 | 12.5 | 5.89 | 5.29 | 7.17 | 13.8 | 4.77 | 4.74 | 7.04 | 5.15 | 4.53 | 8.88 | IC50 (MDA-MB-468): 4.2 nM; IC50 (EFM-192A): 4.75 nM; IC50 (H460): 28.8 nM; IC50 (HCT116): 6.78 nM; IC50 (H1299): 8.42 nM; IC50 (H4): 8.36 nM; IC50 (U251MG): 9.16 nM; IC50 (Caki-1): 5.37 nM; IC50 (HeLa): 18.7 nM; IC50 (T98G): 11.4 nM; IC50 (A2058): 9.24 nM; IC50 (MV4-11): 3.13 nM; IC50 (HCT-15): 9.25 nM; IC50 (SW-1783): 8.6 nM; IC50 (K562): 14.6 nM; IC50 (JIMT-1): 8.57 nM; IC50 (HuH7): 4.3 nM |
